Columns and labels:
[1] = test system: type 1 and type 2A activities; assay: In vitro phosphatase assay in supernatants of Bad and Bcl-w immunoprecipitates with okadaic acid; assay type: biochemical, murine; details: 10^−9 M OA
Protocol: B) Different concentrations of OA were added to Bad or Bcl-w immunoprecipitates from IL-4 stimulated cells. Phosphatase activity was estimated using ^32P phosphorylase a as substrate. The reaction was as in A. Similar results were obtained in three independent experiments. Phosphatase activity is represented as the percentage of maximal activity in untreated supernatants.
(§1) IL-4-stimulated cells (1×10^7) were lysed in lysis buffer, supernatants were immunoprecipitated with the corresponding antibody, followed by incubation with Protein A Sepharose. Immunoprecipitates were washed with phosphatase buffer (50 mM Tris HCl, pH 7.5, 0.1% 2-ME, 0.1 mM EDTA and 1 mg/ml BSA) and mixed with [^32P] phosphorylase a, diluted in phosphatase buffer supplemented with caffeine. The reaction was incubated (40 min at 30° C.), stopped with 200 μl 20% TCA and centrifuged. A total of 185 μl of the supernatant were used to estimate the generation of free phosphate liberated from [^32P] phosphorylase a.
The enzymatic activity in the immunoprecipitates was measured using ^32P-labeled phosphorylase a as substrate. It is interesting to notice that phosphatase activity detected in Bcl-xL and Bcl-w immunoprecipitates nearly corresponds to the phosphatase activity observed in Bad immunoprecipitates. […]

Bad = assay: Serine 136 phosphorylation of Bad in OA-treated cells, western blot; assay type: cell-based, murine
Protocol: A) Cells were treated with or without 1 μM OA in the presence or the absence of IL-4. […] Protein bands were detected using ECL.
Cells (1×10^7) were IL-4-stimulated or -deprived and lysed for 20 min at 4° C. in lysis buffer (50 mM Tris HCl pH 8, 1% NP40, 137 mM NaCl, 1 mM MgCl2, 1 mM CaCl2, 10% glycerol and protease inhibitors cocktail). Digitonin or detergent free buffers were also used for immunoprecipitation. For phosphorylation analysis, the buffer was also supplemented with phosphatase inhibitors cocktail. Lysates were immunoprecipitated with the Appropriate antibody and Protein A Sepharose was added. Alliteratively, cells were lysed in Laemmli sample buffer and protein extracts separated by SDS-PAGE, transferred to nitrocellulose, blocked and incubated with primary antibody. Membrane was washed and incubated. with PO-conjugated secondary antibody. Proteins were developed using the ECL.
As IL-4-deprivation correlates with Bad dephosphorylation and apoptosis, it was hypothesized that inhibition of phosphatase activity by okadaic acid (OA) treatment may prevent Bad dephosphorylation and apoptosis. Treatment of the cells with 1 μM OA in the absence of IL-4 prevented Bad dephosphorylation at serine 136 (FIG. 9A). […] The inhibition of Bcl-xL and Bcl-w expression upon antisense oligonucleotide treatment was estimated by Western blot.

TS1αβ cells = assay: Apoptosis by propidium iodide staining and flow cytometry; assay type: cell-based, murine; details: IL-4-deprived cells, 1 μM OA for 6 h
PP1c [2] = biological target: T1, PP1c (Mus musculus, UniProt P62137); assay: In vitro phosphatase assay in Bad or Bcl-w immunoprecipitates with okadaic acid, 32P phosphorylase a as substrate; assay type: biochemical, murine; design: enzymatic activity was estimated in Bad or Bcl-w immunoprecipitates from IL-4-stimulated cells; endogenous in cells; host or cells: TS1αβ murine T cell line, IL-4-stimulated; anti-Bad or anti-Bcl-w immunoprecipitates on Protein A Sepharose
Protocol: B) Different concentrations of OA were added to Bad or Bcl-w immunoprecipitates from IL-4 stimulated cells. Phosphatase activity was estimated using ^32P phosphorylase a as substrate. […] Phosphatase activity is represented as the percentage of maximal activity in untreated supernatants.
as §1
Target sequence in this assay (P62137 2-330): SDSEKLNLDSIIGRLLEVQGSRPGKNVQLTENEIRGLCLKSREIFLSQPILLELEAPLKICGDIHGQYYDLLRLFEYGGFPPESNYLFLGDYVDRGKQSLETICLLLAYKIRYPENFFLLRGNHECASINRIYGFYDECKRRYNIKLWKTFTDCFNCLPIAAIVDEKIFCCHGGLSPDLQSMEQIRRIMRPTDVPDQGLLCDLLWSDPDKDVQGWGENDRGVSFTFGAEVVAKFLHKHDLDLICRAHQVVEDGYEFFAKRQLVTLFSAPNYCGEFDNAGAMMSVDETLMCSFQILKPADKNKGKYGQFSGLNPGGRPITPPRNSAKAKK
Target sequence in this assay (P70345 2-193, further chain): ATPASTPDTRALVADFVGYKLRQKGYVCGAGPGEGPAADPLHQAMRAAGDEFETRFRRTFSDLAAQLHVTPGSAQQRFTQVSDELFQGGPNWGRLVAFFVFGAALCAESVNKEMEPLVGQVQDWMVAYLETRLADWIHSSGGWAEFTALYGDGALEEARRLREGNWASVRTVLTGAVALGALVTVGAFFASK
Target sequence in this assay (Q61337 whole entry, further chain): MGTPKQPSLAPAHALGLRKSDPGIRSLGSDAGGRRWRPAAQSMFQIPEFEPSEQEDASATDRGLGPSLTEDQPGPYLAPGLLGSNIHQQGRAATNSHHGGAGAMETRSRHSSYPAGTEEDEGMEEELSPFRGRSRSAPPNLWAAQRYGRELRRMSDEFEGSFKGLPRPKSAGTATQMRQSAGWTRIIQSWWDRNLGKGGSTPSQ
The enzymatic activity in the immunoprecipitates was measured using ^32P-labeled phosphorylase a as substrate. […] To confirm that this phosphatase activity was due to PP1c, enzymatic activity was estimated in Bad or Bcl-w immunoprecipitates from IL-4-stimulated cells in the presence of different okadaic acid (OA) concentrations (FIG. 5B). […] The effect of OA on phosphatase activity was also estimated in supernatants of Bad and Bcl-w immunoprecipitates.

PP1c [3] = biological target: T2, PP1c (Homo sapiens, UniProt P62136); assay: PP1c binding assay on cellulose-bound Bcl-xL or Bcl-w peptides; details: membrane-immobilized peptides, anti-PP1c antibody, ECL
T2 construct: purchased Calbiochem
Description: Spots were detected using ECL system. […] Mutated amino acids into the motif are in bold and underlined. Similar results were obtained in two independent experiments. Peptide 1 corresponds to the PP1 binding motif of Bcl-xL and Bcl-w. Peptide 2 corresponds to the mutated PP1 binding site were V and F residues were mutated to A. FIG. 5b contains the following sequences: NWGRIVAFFSFG (SEQ ID NO: 6), NWGRIAAAFSFG (SEQ ID NO: 51): GDEFELRYRRAF (SEQ ID NO: 7). GDEGELGYGRAF (SEQ ID NO: 59): GDESELSYSRAF (SEQ ID NO: 54). GDEFELGYGRAF (SEQ ID NO: 55): GDEFELSYSRAF (SEQ ID NO: 56). GDEGELRYRRAF (SEQ ID NO: 57): GDEGELRYRRAF (SEQ ID NO: 58): GDEGELGYRRAF (SEQ ID NO: 59). GDESELSYRRAF (SEQ ID NO: 60). PNWGRLVAFFVFG (SEQ ID NO: 61): PNWGRLAAAFVFG (SEQ ID NO: 62). GDEFETRFRRTFS (SEQ ID NO: 63): GDEFETGFGRTFS (SEQ ID NO: 64). GDEFETGFGRTFS (SEQ ID NO: 65), GDEFETRFGRTFS (SEQ ID NO: 66). GDEGETGFRRTFS (SEQ ID NO: 67). GDEGETRFRRTFS (SEQ ID NO: 68). FIG. 5a contains the following sequences FSRRYR (SEQ ID NO: 5). FTARGR (SEQ ID NO: 5). FELRYR (SEQ ID NO: 5). FETRFR (SEQ ID NO: 5).
Membrane was blocked, incubated with purified PP1c and, after several washing steps, incubated with anti-PP1c antibody, followed by PO-conjugated secondary antibody. Spots were developed using the ECL system.
It has been described that R/K X V/I X F motif is shared by most of the PP1c targeting subunits (21, 23). […]

[4] = biological target: T3, Bcl-xL/PP1c/Bad and Bcl-w/PP1c/Bad (Mus musculus, UniProt P62137); assay: Protein-protein interaction competition in anti-Bad immunoprecipitates, western blot; assay type: binding, murine; details: 1.5 mM peptide, 30 min, room temperature; anti-Bad immunoprecipitates of IL-4-stimulated cells
T3 construct: Lysates from IL-4-stimulated cells were immunoprecipitated with anti-Bad antibody and Protein A Sepharose was added; endogenous in cells; host or cells: TS1αβ murine T cell line, IL-4-stimulated; anti-Bad immunoprecipitates on Protein A Sepharose
Protocol: A) Cytoplasmic extracts from control IL-4-stimulated cells were immunoprecipitated with anti-Bad antibody. The interaction Bcl-xL/PP1c/Bad and Bcl-w/PP1c/Bad was competed with 1.5 mM of R, R*, F or R+F peptides for 30 min at room temperature. Immunoprecipitates were washed, transferred to nitrocellulose and blotted with anti-Bad, anti-PP1c, anti-Bcl-xL and anti-Bcl-w. Similar results were obtained in two independent experiments. For sequence of peptides, see Materials and Methods or FIGS. 5A and 5B.
Cells (1×10^7) were IL-4-stimulated or -deprived and lysed for 20 min at 4° C. in lysis buffer (50 mM Tris HCl pH 8, 1% NP40, 137 mM NaCl, 1 mM MgCl2, 1 mM CaCl2, 10% glycerol and protease inhibitors cocktail). Digitonin or detergent free buffers were also used for immunoprecipitation. […]
(§2) Lysates from IL-4-stimulated cells were immunoprecipitated with anti-Bad antibody and the interaction Bcl-xL/PP1c and Bcl-w/PP1c was competed using R* (NWGRIAAAFSF) (SEQ ID NO: 8), R (NWGRIVAFFSF) (SEQ ID NO: 6) or F (GDEFELRYRRAF) (SEQ ID NO: 7) peptides (FIG. 8A). Bcl-xL, Bcl-w and PP1c were detected in control anti-Bad immunoprecipitates, as well as in anti-Bad immunoprecipitates treated with R* peptide. […] Phosphatase activity was detected in control or R* peptide-treated immunoprecipitates (FIG. 8B), decreasing upon competition of the interaction with F or R peptides. […]

PP1c [5] = biological target: T1, PP1c; assay: Phosphatase activity in peptide-treated Bad immunoprecipitates; assay type: biochemical, murine; design: Lysates from IL-4-stimulated cells were immunoprecipitated with anti-Bad antibody and Protein A Sepharose was added; endogenous in cells; host or cells: TS1αβ murine T cell line, IL-4-stimulated; anti-Bad immunoprecipitates on Protein A Sepharose; details: 1.5 mM peptide, 30 min, room temperature
Protocol: B) Cytoplasmic lysates from IL-4-stimulated cells were immunoprecipitated with anti-Bad antibody. Immunoprecipitates were treated with 1.5 mM of R, R*, F or R+F peptides for 30 min at room temperature. Immunoprecipitates were washed and phosphatase activity estimated using ^32P phosphorylase a as substrate. Similar results were obtained in two independent experiments.
C) Cytoplasmic lysates from IL-4-stimulated cells were immunoprecipitated with anti-Bad antibody and then treated with 1.5 mM of R+F peptide or 3 mM of R or F peptide (30 min, room temperature). Immunoprecipitates were washed and phosphatase activity estimated as in B.
IL-4-stimulated cells (1×10^7) were lysed in lysis buffer, supernatants were immunoprecipitated with the corresponding antibody, followed by incubation with Protein A Sepharose. […]
as §2
Target sequence in this assay (P62137 2-330 limits assumed): as the sequence (P62137 2-330) above

T2 sequence (P62136 whole entry): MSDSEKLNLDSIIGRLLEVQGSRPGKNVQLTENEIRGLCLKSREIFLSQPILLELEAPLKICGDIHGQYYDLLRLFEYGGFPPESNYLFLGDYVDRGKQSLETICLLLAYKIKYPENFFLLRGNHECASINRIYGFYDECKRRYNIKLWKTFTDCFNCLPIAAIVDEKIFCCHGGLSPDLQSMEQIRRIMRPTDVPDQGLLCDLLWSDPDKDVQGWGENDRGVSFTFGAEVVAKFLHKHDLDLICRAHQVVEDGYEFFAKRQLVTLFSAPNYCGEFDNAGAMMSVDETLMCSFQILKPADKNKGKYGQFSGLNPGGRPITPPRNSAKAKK
T3 sequence (P62137 2-330 limits assumed): as the sequence (P62137 2-330) above

**Q.** C=C1[C@@H](O)[C@@H]2O[C@]3(CC[C@H](/C=C/[C@@H](C)[C@@H]4CC(C)=C[C@@]5(O[C@H](C[C@@](C)(O)C(=O)O)CC[C@H]5O)O4)O3)CC[C@H]2O[C@@H]1[C@@H](O)C[C@H](C)[C@H]1O[C@@]2(CCCCO2)CC[C@H]1C [OA, okadaic acid] was tested. Which “inhibition of phosphatase activity in the supernatant” value [1] did it give?
**A.** ~50%

**Q.** What about the “Bad dephosphorylation at serine 136” value (Bad; 1 μM OA in the absence of IL-4) of the same molecule?
**A.** prevented

**Q.** And the “total Bad expression” value (Bad; after OA treatment (1 μM))?
**A.** No changes

**Q.** What about the “fraction of apoptotic cells compared with untreated cells” value (TS1αβ cells) of the same molecule?
**A.** significant reduction

**Q.** And the phosphatase activity (PP1c [2]; 10^−6 M OA, Bcl-w or Bad immunoprecipitates)?
**A.** strongly reduced

**Q.** And the inhibition at 0.01 µM (PP1c [2]; 10^−8 M OA, Bcl-w or Bad immunoprecipitates)?
**A.** ~50%

**Q.** What about the “effect on Bad- or Bcl-w-associated phosphatase activity in vitro” value (PP1c [2]; 10^−9 M OA, Bad or Bcl-w immunoprecipitates from IL-4-stimulated cells) of the same molecule?
**A.** no effect

**Q.** How did the “binding to purified PP1c” value (PP1c [3]) turn out when FELRYR was run?
**A.** interacts with PP1c

**Q.** FETRFR was tested. Which “binding to purified PP1c” value (PP1c [3]) did it give?
**A.** interacts with PP1c

**Q.** For GDEFELRYRRAF [F peptide], which “amount of Bcl-xL, Bcl-w and PP1c associated to Bad after competition” value [4] is on record?
**A.** decreases

**Q.** What about the “phosphatase activity in peptide-treated Bad immunoprecipitates” value (PP1c [5]) of the same molecule?
**A.** decreasing

Reference: patent publication US7741288B2, “Methods of screening of PP1-interacting polypeptides or proteins, peptides inhibiting PP1c binding to Bcl-2 proteins, Bcl-xL and Bcl-w, and uses thereof” (Institut Pasteur, priority 2002, dated 2010)
